In patent US7863330B2, “Deloxiglumide and proton pump inhibitor combination in the treatment of gastrointestinal disorders” (Rottapharm S.p.A., priority 2006, dated 2011):

Tests used:
[1] = tested on: endogenous and exogenous CCK; conditions: cited from earlier work
[2] = target: T1, CCK1 receptors (Homo sapiens, UniProt P32238); conditions: cited from earlier work
T1 sequence (P32238 1-428): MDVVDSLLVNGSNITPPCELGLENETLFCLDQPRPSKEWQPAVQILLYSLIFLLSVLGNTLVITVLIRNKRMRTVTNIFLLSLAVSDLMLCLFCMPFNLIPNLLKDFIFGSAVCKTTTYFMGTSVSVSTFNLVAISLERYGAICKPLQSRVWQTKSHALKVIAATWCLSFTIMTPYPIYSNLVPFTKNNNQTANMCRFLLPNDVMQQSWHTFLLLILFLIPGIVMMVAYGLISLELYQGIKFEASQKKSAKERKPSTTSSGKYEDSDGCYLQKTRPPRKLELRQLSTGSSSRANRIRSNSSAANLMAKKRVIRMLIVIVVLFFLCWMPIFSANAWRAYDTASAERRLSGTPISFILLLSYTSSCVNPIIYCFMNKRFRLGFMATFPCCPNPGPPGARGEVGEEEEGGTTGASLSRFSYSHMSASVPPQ

[3] = tested on: CCK release in response to duodenal lipid infusion; conditions: healthy subjects, cited from earlier work
[4] = tested on: antro-pyloroduodenal dysmotility; conditions: healthy subjects; intraduodenal infusion of a mixed liquid meal; cited from earlier work
[5] = tested on: nonulcer dyspepsia; conditions: cited from earlier work
[6] = tested on: CCK-induced delay in gastric emptying; conditions: healthy subjects; cited from earlier work
[7] = tested on: acute reflux esophagitis in pylorus-ligated rats; assay: Acute reflux esophagitis in pylorus- and limiting ridge-ligated rats; type: in vivo; parameters: key to Average Score lesions: lesion index 0 = no lesion to 6 = hemorrhage >40 mm/perforation; conditions: for ED50: Rattus norvegicus, intraduodenal, compound administered separately, intraduodenally, from dose-response regression line, read-out: ED50 (dose which reduces the esophagus lesions by 50%); for % Effect vs. control: after 3 hours; for Average Score lesions: esophagus lesion index 0-6 after 3 hours
Description: Male rats of 175-200 g body weight were fasted for 24 hours prior the experiment. Water was allowed ad libitum. Under ether anesthesia, the abdomen was incised along the midline, and both pylorus and limiting ridge (transitional region between the forestomach and corpus) were simultaneously ligated. Consequently, the total capacity of the stomach to hold gastric juice was greatly diminished, resulting in reflux of gastric juice into the esophagus. Following ligation of pylorus and limiting ridge, the test compounds were given intraduodenally (5 ml/kg), and the abdomen was closed by suturing. After 3 hours, rats were killed by ether overdose and the gastroesophageal portion was excised. The lesion in the thoracic esophagus was scored macroscopically, using a lesion index according to the following criteria: no lesion as 0; edema as 1; reddening as 2; the length of hemorrhagic area<20 mm as 3; the length of hemorrhagic area 20-30 mm as 4; the length of hemorrhagic area 30-40 mm as 5; the length of hemorrhagic area>40 mm or perforation as 6.
The doses of the tested compounds which reduce of 50% the esophagus lesions (ED50) and their P=0.05 fiducial limits were calculated from the dose-response regression line.

[8] = tested on: gastrointestinal motility; conditions: preclinical and clinical studies; cited from earlier work
[9] = tested on: functional dyspepsia; conditions: patients with functional dyspepsia; duodenal infusion of lipid with or without balloon distension; compared to placebo; cited from earlier work
[10] = target: T2, CCK2 receptors (Homo sapiens, UniProt P32239); conditions: cited from earlier work
T2 sequence (P32239 1-447): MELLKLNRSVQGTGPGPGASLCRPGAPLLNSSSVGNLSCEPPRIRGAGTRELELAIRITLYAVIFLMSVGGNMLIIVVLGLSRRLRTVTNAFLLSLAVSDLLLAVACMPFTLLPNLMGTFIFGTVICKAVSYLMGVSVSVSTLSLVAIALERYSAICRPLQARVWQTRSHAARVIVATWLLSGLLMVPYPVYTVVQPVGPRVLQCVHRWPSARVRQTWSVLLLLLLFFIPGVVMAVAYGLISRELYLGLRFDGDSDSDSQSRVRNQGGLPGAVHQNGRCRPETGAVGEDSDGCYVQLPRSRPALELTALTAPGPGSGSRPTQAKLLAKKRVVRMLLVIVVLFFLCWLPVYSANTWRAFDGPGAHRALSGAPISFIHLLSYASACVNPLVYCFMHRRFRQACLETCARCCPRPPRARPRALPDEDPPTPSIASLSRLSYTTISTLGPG

In the case of `CCCCCN(CCCCC)C(=O)C(CCC(=O)O)NC(=O)c1ccc(Cl)c(Cl)c1` (racemic) [Lorglumide, R,S-4-[(3,4-Dichlorobenzoyl)amino]-5-(dipentylamino)-5-oxopentanoic acid], the “activity after oral administration” value [1] is listed as “active after oral administration” and the “potency and specificity as CCK receptor antagonist” value (“potency and specificity” below) [2] is listed as “potent, specific competitive antagonists”.
For `CCCCCN(CCCOC)C(=O)C(CCC(=O)O)NC(=O)c1ccc(Cl)c(Cl)c1` (racemic) [Loxiglumide, R,S-4-(3,4-dichlorobenzoylamino)-5-(N-3-methoxypropyl-pentylamino)-5-oxo-pentanoic acid], the “activity after oral administration” value [1] is given as “active after oral administration”, the proximal gastric relaxation ([3]; duodenal infusion of lipid) is given as “the relaxation was reversed” and the intragastric pressure ([3]; duodenal infusion of lipids) is given as “able to reverse the lowering of intragastric pressure”. The antro-pyloroduodenal dysmotility [4] was “modulated antro-pyloroduodenal dysmotility”, the dyspeptic symptoms ([5]; patients with non-ulcer dyspepsia, 8-week study) was “significantly improved dyspeptic symptoms” and the gastric emptying ([5]; patients with nonulcer dyspepsia and delayed gastric emptying, comparison to placebo) was “accelerate gastric emptying”. For the same molecule, the “potency and specificity” value [2] was “potent, specific competitive antagonists” and the “exogenous and endogenous CCK-induced delay in gastric emptying of liquids and solids” value [6] was “reduced”.
For `CCCCCN(CCCOC)C(=O)[C@@H](CCC(=O)O)NC(=O)c1ccc(Cl)c(Cl)c1` [Dexloxiglumide, R-4-(3,4-dichlorobenzoylamino)-5-(N-3-methoxypropyl-pentylamino)-5-oxo-pentanoic acid], the ED50 [7] was 37.5 mg/kg, the “% Effect vs. control” value ([7]; dose 10 mg/kg intraduodenally) was 0% and the “Average Score lesions” value ([7]; dose 10 mg/kg intraduodenally) was 5.8. For the same molecule, the “% Effect vs. control” value ([7]; dose 20 mg/kg intraduodenally) was 17.2%, the “Average Score lesions” value ([7]; dose 20 mg/kg intraduodenally) was 4.8 and the “% Effect vs. control” value ([7]; dose 40 mg/kg intraduodenally) was 51.7%. The “Average Score lesions” value ([7]; dose 40 mg/kg intraduodenally) was 2.6, the “% Effect vs. control” value ([7]; dose 60 mg/kg intraduodenally) was 62.1% and the “Average Score lesions” value ([7]; dose 60 mg/kg intraduodenally) was 2.2. For the same molecule, the “% Effect vs. control” value ([7]; dose 100 mg/kg intraduodenally) was 100%, the “Average Score lesions” value ([7]; dose 100 mg/kg intraduodenally) was 0 and the “tolerance to water volume” value ([3]; duodenal lipid infusion) was “reversed the diminished tolerance to water volume”. The “potency relative to the racemic compound (loxiglumide)” value ([2]; anti-CCK activity) was “approximately twice”, the colonic transit [8] was “accelerates colonic transit” and the gallbladder contraction [8] was “effective inhibitor of gallbladder contraction”. The gastric emptying [8] was “accelerates gastric emptying”, the “lower esophageal sphincter (LES) function” value [8] was “improves lower esophageal sphincter (LES) function” and the dyspepsia symptom scores [9] was “significantly improved dyspepsia symptom scores”.
With `COc1ccc2[nH]c([S+]([O-])Cc3ncc(C)c(OC)c3C)nc2c1` (stereo not drawn) [Omeprazole] the ED50 [7] was 5.4 mg/kg, the “% Effect vs. control” value ([7]; dose 0.1 mg/kg intraduodenally) was 3.4% and the “Average Score lesions” value ([7]; dose 0.1 mg/kg intraduodenally) was 5.6. The “% Effect vs. control” value ([7]; dose 0.3 mg/kg intraduodenally) was 0%, the “Average Score lesions” value ([7]; dose 0.3 mg/kg intraduodenally) was 5.8 and the “% Effect vs. control” value ([7]; dose 1.0 mg/kg intraduodenally) was 14.3%. The “Average Score lesions” value ([7]; dose 1.0 mg/kg intraduodenally) was 4.8, the “% Effect vs. control” value ([7]; dose 3.0 mg/kg intraduodenally) was 53.4% and the “Average Score lesions” value ([7]; dose 3.0 mg/kg intraduodenally) was 2.7.
In the case of `CCCN(CCC)C(=O)C(CCC(=O)O)NC(=O)c1ccccc1` (stereo not drawn) [proglumide], the “potency and specificity” value [2] is given as “low potency and specificity” and the “binding to CCK2 receptors” value [10] is given as “effectively binds CCK2 receptors”.
